Laboratory results from ChEMBL document CHEMBL5537180, “Discovery of Novel Aminobutanoic Acid-Based ASCT2 Inhibitors for the Treatment of Non-Small-Cell Lung Cancer” (J Med Chem, 2024).
Calls of active or inactive are those of the source. No cut-off for these calls is given here.

Columns and labels:
NSCLC [1] = test: Antiproliferative activity against human NSCLC cells cultured as HCC827 organoids assessed as cell viability incubated for 96 hrs by Celltiter-glo viability assay; type: functional, cell-based
A549 [2] = test: Induction of autophagy in human A549 cells assessed as downregulation of p62 level at 5 to 10 uM measured after 24 hrs by Western blot analysis; type: functional, cell-based; settings: dose 5-10 µM
[3] = Metabolic stability in rat liver microsomes assessed as half life; type: ADME, Microsome
[4] = Toxicity in BALB/c nude mouse assessed as effect on spleen at 25 to 50 mg/kg, ip measured after 3 weeks by H and E staining based analysis; type: organism-based; settings: in vivo, 504 h, dose 25-50 mg/kg
[5] = Apparent volume of distribution with respect to the bioavailability in Sprague-Dawley rat at 10 mg/kg, ip incubated for 24 hrs by LC-MS/MS analysis; type: ADME, organism-based; settings: in vivo, read-out: Vc/F
[6] = target: T1, Neutral amino acid transporter B(0) (Homo sapiens, UniProt Q15758); test: Inhibition of ASCT2 in HEK293 cells assessed as reduction in glutamine uptake preincubated for 5 mins followed by substrate addition and measured after 15 mins; type: cell-based
T1 sequence (Q15758 whole entry): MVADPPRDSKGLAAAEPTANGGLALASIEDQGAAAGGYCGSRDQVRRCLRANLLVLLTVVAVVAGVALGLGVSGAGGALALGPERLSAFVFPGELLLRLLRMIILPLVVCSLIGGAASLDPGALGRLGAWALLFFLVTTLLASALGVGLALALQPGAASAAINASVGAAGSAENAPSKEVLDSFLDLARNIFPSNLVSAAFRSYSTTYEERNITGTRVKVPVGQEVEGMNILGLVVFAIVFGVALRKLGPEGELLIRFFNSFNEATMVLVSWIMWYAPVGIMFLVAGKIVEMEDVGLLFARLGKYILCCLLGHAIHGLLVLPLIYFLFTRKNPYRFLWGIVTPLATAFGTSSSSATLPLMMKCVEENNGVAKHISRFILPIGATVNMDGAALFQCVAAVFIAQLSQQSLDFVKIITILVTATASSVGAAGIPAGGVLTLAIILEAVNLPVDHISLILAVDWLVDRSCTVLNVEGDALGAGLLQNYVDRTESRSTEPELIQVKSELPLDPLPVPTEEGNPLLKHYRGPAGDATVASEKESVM

[7] = target: T2, Sodium-coupled neutral amino acid symporter 2 (Homo sapiens) (UniProt Q96QD8); test: Inhibition of SNAT2 (unknown origin) overexpressed in HEK293 cells assessed as reduction in [13C]-Gln uptake preincubated for 5 mins followed by substrate addition and measured after 15 mins; type: cell-based; settings: time 20.0 min
T2 sequence (whole entry): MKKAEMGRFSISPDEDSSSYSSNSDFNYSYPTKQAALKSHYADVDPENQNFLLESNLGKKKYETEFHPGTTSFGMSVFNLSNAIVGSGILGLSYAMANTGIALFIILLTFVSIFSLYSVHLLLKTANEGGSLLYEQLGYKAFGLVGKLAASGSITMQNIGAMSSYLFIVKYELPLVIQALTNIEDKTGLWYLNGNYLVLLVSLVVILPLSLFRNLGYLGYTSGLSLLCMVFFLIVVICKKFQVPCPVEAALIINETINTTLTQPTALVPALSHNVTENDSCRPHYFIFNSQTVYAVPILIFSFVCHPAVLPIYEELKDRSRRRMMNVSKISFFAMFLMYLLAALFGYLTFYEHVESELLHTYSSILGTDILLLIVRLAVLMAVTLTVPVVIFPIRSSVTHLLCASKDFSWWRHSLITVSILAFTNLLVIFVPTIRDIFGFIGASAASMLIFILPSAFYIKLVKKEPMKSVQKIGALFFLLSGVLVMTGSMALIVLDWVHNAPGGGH

[8] = target: T1, Neutral amino acid transporter B(0); test: Inhibition of ASCT2 in human A549 cells assessed as reduction in glutamine uptake preincubated for 5 mins followed by substrate addition and measured after 15 mins; type: cell-based
A549 [9] = test: Induction of autophagy in human A549 cells assessed as downregulation of p70S6K level at 5 to 10 uM measured after 24 hrs by Western blot analysis; type: functional, cell-based; settings: dose 5-10 µM
A549 [10] = test: Induction of apoptosis in human A549 cells assessed as caspase 9 activation at 5 to 10 uM incubated for 24 hrs by Western blot analysis; type: functional, cell-based; settings: dose 5-10 µM
A549 [11] = test: Induction of apoptosis in human A549 cells measured after 24 hrs by annexin-V/PI staining based flow cytometry analysis; type: functional, cell-based; settings: dose 5-10 µM
[12] = target: Large neutral amino acids transporter small subunit 1 (Homo sapiens) (UniProt Q01650); test: Inhibition of LAT1 (unknown origin) overexpressed in HEK293 cells assessed as reduction in [13C]-Gln uptake preincubated for 5 mins followed by substrate addition and measured after 15 mins; type: cell-based; settings: time 20.0 min
Large neutral amino acids transporter small subunit 1 (Homo sapiens), sequence (Q01650 whole entry): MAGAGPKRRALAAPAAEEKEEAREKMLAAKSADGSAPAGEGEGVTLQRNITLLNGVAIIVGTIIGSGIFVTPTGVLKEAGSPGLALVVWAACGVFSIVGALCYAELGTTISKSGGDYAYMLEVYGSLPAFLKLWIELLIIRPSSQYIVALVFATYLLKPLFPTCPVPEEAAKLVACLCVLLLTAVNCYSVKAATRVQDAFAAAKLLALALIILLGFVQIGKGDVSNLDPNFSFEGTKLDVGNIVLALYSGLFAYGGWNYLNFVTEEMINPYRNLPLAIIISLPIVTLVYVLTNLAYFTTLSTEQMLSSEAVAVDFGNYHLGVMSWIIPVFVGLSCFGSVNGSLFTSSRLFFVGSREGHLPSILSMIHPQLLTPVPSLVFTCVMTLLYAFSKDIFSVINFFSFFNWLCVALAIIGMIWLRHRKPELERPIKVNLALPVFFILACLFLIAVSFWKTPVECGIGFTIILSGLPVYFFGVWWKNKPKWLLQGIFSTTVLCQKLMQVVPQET

A549 [13] = test: Antiproliferative activity against human A549 cells assessed as reduction in cell viability after 72 hrs by MTT assay; type: functional, cell-based; settings: A549, 72 h
[14] = target: T3, Sodium-coupled neutral amino acid symporter 1 (Homo sapiens) (UniProt Q9H2H9); test: Inhibition of SNAT1 (unknown origin) overexpressed in HEK293 cells assessed as reduction in [13C]-Gln uptake preincubated for 5 mins followed by substrate addition and measured after 15 mins; type: cell-based; settings: time 20.0 min
T3 sequence (whole entry): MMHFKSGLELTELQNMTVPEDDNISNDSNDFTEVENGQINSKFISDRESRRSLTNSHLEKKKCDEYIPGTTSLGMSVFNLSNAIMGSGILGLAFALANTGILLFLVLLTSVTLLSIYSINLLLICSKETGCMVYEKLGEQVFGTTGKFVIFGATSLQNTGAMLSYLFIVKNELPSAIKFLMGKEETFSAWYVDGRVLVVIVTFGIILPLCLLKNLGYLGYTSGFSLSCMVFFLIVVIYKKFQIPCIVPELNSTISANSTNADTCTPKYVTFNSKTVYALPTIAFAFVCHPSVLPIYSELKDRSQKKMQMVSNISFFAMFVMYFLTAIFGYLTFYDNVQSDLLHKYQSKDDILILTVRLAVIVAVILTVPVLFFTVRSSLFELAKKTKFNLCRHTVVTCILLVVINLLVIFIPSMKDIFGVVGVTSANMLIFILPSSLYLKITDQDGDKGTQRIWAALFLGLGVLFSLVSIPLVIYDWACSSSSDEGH

NSCLC [15] = test: Antiproliferative activity against human NSCLC cells cultured as 2566 organoids assessed as cell viability incubated for 96 hrs by Celltiter-glo viability assay; type: functional, cell-based
A549 [16] = test: Induction of autophagy in human A549 cells assessed as downregulation of AKT phosphorylation level at 5 to 10 uM measured after 24 hrs by Western blot analysis; type: functional, cell-based; settings: dose 5-10 µM
A549 [17] = test: Induction of autophagy in human A549 cells assessed as increase in LC3 II expression at 5 to 10 uM measured after 24 hrs by Western blot analysis; type: functional, cell-based; settings: dose 5-10 µM
A549 [18] = test: Antitumor activity against human A549 cells xenografted in BALB/c nude mouse assessed as inhibition of tumor volume at 25 to 50 mg/kg, ip measured daily for 3 weeks; type: functional, organism-based; settings: dose 25-50 mg/kg
[19] = Toxicity in BALB/c nude mouse assessed as effect on heart at 25 to 50 mg/kg, ip measured after 3 weeks by H and E staining based analysis; type: organism-based; settings: in vivo, 504 h, dose 25-50 mg/kg
NSCLC [20] = test: Antiproliferative activity against human NSCLC cells cultured as 2862 organoids assessed as cell viability incubated for 96 hrs by Celltiter-glo viability assay; type: functional, cell-based

SMILES: N[C@@H](CCN(Cc1ccccc1OCC#Cc1ccc(Cl)cc1)Cc1ccccc1OCC#Cc1ccc(Cl)cc1)C(=O)O
- IC50 (NSCLC [1]): 22.4 µM
- Activity (A549 [2]): Active
- half-life [3]: 0.619 h
- Activity [4]: Toxic
- Vd/F [5]: 49.5 L/kg
- IC50 [6]: 3.5 µM
- inhibition [7]: inactive
- IC50 [8]: 5.6 µM
- Activity (A549 [9]): Active
- Activity (A549 [10]): Active
- Activity (A549 [11]): Dose-Dependent Effect
- inhibition [12]: inactive
- IC50 (A549 [13]): 10.3 µM
- inhibition [14]: inactive
- IC50 (NSCLC [15]): 5.09 µM
- Activity (A549 [16]): Active
- Activity (A549 [17]): Active
- Activity (A549 [18]): Active
- Activity [19]: Toxic
- IC50 (NSCLC [20]): 5.21 µM

SMILES: CC(C)(C)c1ccc(OCC#Cc2ccccc2)c(CN(CC[C@H](N)C(=O)O)Cc2cc(C(C)(C)C)ccc2OCC#Cc2ccccc2)c1
- IC50 (NSCLC [1]): 2.36 µM
- Activity (A549 [2]): Active
- half-life [3]: 2.78 h
- Activity [4]: Toxic
- Vd/F [5]: 20 L/kg
- IC50 [6]: 5.14 µM
- inhibition [7]: inactive
- IC50 [8]: 19.2 µM
- Activity (A549 [9]): Active
- Activity (A549 [10]): Active
- Activity (A549 [11]): Dose-Dependent Effect
- inhibition [12]: inactive
- IC50 (A549 [13]): 5.83 µM
- inhibition [14]: inactive
- IC50 (NSCLC [15]): 8.08 µM
- Activity (A549 [16]): Active
- Activity (A549 [17]): Active
- Activity (A549 [18]): Active
- Activity [19]: Toxic
- IC50 (NSCLC [20]): 2.85 µM
